pIC50: −log10 of the molar value.
Target: P. falciparum apicoplast DNA polymerase (Pf-apPOL) (Plasmodium falciparum, UniProt Q8ILY1)
Assay: Fluorescence-based high-throughput DNA polymerase assay (molecular beacon), primary screen and dose-response
Type: biochemical
Conditions: for DNA Pol: unit not given, 90 min, 10 µM
Description: The HT assay employs a molecular beacon, a stem-loop DNA template with a Cy3 dye and the Black Hole Quencher on the 3′ and 5′ ends of the DNA, respectively. Pf-apPOL concentration is based on a calculated absorptivity of ε280 = 56750 M^−1 cm^−1. Reactions were carried out at 25 °C, using Corning 3575 […] (well-volume, 20 µL). Assays testing for compound inhibition composed of reaction buffer (pH 7.9 in 50 mM potassium acetate, 20 mM Tris-acetate and 10 mM magnesium acetate), Pf-apPOL (20 nM), DNA substrate (20 nM), dNTPs (6 µM), and compound (10 µM in DMSO). The DNA and nucleotide substrates (dNTPs) were at concentrations of 20 nM and 6 µM, respectively, in the assay. Pf-apPOL was incubated in the reaction buffer with dNTPs and the compound of interest (10 µM, in the assay) at 25 °C for 10 min. The DNA substrate was then added and the reaction was allowed to proceed for 90 min at 25 °C.
Each assay plate contained 16 negative controls (no Pf-apPOL, DMSO present) and 16 positive controls (Pf-apPOL present, no DMSO). The fluorescence of each well was determined using a BioTek Synergy Neo fluorescence plate reader using excitation and emission wavelengths of 555 and 570 nm, respectively.
In the above, Min is the average of fluorescence emission of the negative controls (substrate only), Max the average fluorescence emission from the positive controls (enzyme + substrate), and Test the emission from the assays in the presence of compounds (enzyme + compound + substrates). […] […] The IC50 of each compound was determined using Equation (2): (2) IC50= Vmax/(1+ (I/IC50)^n)
In the above, n measures cooperativity, with n > 1 indicating synergistic binding of more than a single molecule of the compound.
To identify apPOL inhibitors we utilised our previously developed high-throughput DNA polymerase assay. The HT assay is based on a molecular beacon DNA template that forms a stem-loop with a Cy3 dye and the Black Hole Quencher on the 3′ and 5′ ends of the DNA, respectively. DNA polymerase activity extends an annealed primer through the stem region, displacing the fluorophore from the quencher, thereby increasing its fluorescence (Figure 1(A)). The assay accurately recapitulates the kinetic behaviour of apPOL, as measured through more conventional low-throughput gel-based assays. The Z′ factor for the assay described here was 0.9 across all plates (data not shown).
Figure 1. High-throughput screening. (A) The fluorescent-based DNA polymerase assay used to screen the compound libraries. The DNA template strand is a hairpin loop with a primer annealed to the loop. The 3’ end of the primer is 11 bases away from the 6 bp duplex. Strand displacement activity of the DNA polymerase separates the Cy3 dye from the Black hole quencher leading to an increase in fluorescent signal. (B) The high-throughput assay workflow. The DNA polymerase is incubated with […] compound for 10 min prior to addition of the hairpin substrate. The reaction is quenched at 3 different time points and the fluorescent signal is measured and % inhibition is determined using the provided equation.

Sequence of P. falciparum apicoplast DNA polymerase (Pf-apPOL) (Q8ILY1 entry or part of it): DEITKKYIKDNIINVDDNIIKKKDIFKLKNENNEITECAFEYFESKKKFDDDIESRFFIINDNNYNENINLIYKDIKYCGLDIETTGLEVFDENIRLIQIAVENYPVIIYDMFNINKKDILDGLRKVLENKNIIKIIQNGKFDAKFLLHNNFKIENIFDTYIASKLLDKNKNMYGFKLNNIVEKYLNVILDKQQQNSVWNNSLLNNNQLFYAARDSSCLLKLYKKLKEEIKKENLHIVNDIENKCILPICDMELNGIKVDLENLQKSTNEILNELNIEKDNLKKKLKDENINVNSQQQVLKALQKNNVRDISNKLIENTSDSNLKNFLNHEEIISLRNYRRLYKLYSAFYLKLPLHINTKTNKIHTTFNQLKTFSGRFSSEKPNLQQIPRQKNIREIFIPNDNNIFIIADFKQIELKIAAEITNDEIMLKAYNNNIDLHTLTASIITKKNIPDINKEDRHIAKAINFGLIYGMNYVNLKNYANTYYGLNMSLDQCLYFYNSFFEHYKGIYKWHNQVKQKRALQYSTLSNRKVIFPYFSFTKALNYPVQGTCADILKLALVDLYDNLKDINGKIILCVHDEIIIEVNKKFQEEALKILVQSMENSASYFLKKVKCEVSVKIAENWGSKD

## CC(C)(C)c1cc(C(=O)C(C#N)=NNc2cccc(Cl)c2)no1 [Molecule 98, N#CC(=NNc1cccc(c1)Cl)C(=O)c1noc(c1)C(C)(C)C]
'DNA Pol' of the 186 hits list (primary screen result)
  DNA Pol: 96
DRC-1, concentration 2.5
  % inhibition Apo pol 10': 10.7073%
  % inhibition apPOL 180': 9.726%
DRC-1, concentration 5
  % inhibition Apo pol 10': 31.7551%
  % inhibition apPOL 180': 23.8574%
DRC-1, concentration 10
  % inhibition Apo pol 10': 51.803%
  % inhibition apPOL 180': 46.8466%
DRC-1, concentration 20
  % inhibition Apo pol 10': 87.204%
  % inhibition apPOL 180': 85.1856%
DRC-1, concentration 40
  % inhibition Apo pol 10': 82.704%
  % inhibition apPOL 180': 79.4059%
DRC-1, concentration 80
  % inhibition Apo pol 10': 96.4114%
  % inhibition apPOL 180': 96.5379%
DRC-1, 90', concentration 2.5
  % inhibition Apol 90': 12.918%
DRC-1, 90', concentration 5
  % inhibition Apol 90': 31.5705%
DRC-1, 90', concentration 10
  % inhibition Apol 90': 54.1185%
DRC-1, 90', concentration 20
  % inhibition Apol 90': 87.0322%
DRC-1, 90', concentration 40
  % inhibition Apol 90': 80.829%
DRC-1, 90', concentration 80
  % inhibition Apol 90': 96.7924%
DRC-2, 90', concentration 20 (unit not given)
  % inhibition ApPOL 90': 61%
DRC-2, concentration 2.5
  % inhibition Apo pol 5': 8%
  % inhibition Apol 40': 10%
  % inhibition apPOL 180': 2.49%
DRC-2, concentration 5
  % inhibition Apo pol 5': 18%
  % inhibition Apol 40': 24%
  % inhibition apPOL 180': 14%
DRC-2, concentration 10
  % inhibition Apo pol 5': 30%
  % inhibition Apol 40': 40%
  % inhibition apPOL 180': 31%
DRC-2, concentration 20
  % inhibition Apo pol 5': 47%
  % inhibition Apol 40': 60%
  % inhibition apPOL 180': 57%
DRC-2, concentration 40
  % inhibition Apo pol 5': 46%
  % inhibition Apol 40': 56%
  % inhibition apPOL 180': 55%
DRC-2, concentration 80
  % inhibition Apo pol 5': 61%
  % inhibition Apol 40': 76%
  % inhibition apPOL 180': 81%
DRC-2, concentration 80 (unit not given)
  % inhibition Apo pol 5': 61%
DRC-2, 90', concentration 2.5
  % inhibition ApPOL 90': 8.47%
DRC-2, 90', concentration 5
  % inhibition ApPOL 90': 21%
DRC-2, 90', concentration 10
  % inhibition ApPOL 90': 39%
DRC-2, 90', concentration 20
  % inhibition ApPOL 90': 61%
DRC-2, 90', concentration 40
  % inhibition ApPOL 90': 58%
DRC-2, 90', concentration 80
  % inhibition ApPOL 90': 79%
Primary screen value of the library well
  DNA Pol: 96

## Cc1cccc(-c2nnc3ccc(NS(=O)(=O)c4ccc(C)c(C)c4)nn23)c1 [Molecule 40]
Supplemental file 2, sheet IC50 nontoxic compounds, Pf-apPOL
  pIC50: 4.99

— PMC9090415, “Discovery of small molecule inhibitors of Plasmodium falciparum apicoplast DNA polymerase” (Journal of Enzyme Inhibition and Medicinal Chemistry, 2022)
